# From patent US20250064941A1, “SIGLEC LIGANDS, CONJUGATES, AND METHODS OF USE THEREOF” (Osprey Biopharmaceuticals, Inc., priority 2023, published 2025)
# Key:
# [1] = biological target: T1, mouse Siglec-2-Fc-Avi (CD22) (Mus musculus, UniProt P35329); assay: SPR binding affinity to mouse CD22; settings: steady-state analysis
# T1 construct: made in house
# T1 sequence (P35329 22-708 limits assumed): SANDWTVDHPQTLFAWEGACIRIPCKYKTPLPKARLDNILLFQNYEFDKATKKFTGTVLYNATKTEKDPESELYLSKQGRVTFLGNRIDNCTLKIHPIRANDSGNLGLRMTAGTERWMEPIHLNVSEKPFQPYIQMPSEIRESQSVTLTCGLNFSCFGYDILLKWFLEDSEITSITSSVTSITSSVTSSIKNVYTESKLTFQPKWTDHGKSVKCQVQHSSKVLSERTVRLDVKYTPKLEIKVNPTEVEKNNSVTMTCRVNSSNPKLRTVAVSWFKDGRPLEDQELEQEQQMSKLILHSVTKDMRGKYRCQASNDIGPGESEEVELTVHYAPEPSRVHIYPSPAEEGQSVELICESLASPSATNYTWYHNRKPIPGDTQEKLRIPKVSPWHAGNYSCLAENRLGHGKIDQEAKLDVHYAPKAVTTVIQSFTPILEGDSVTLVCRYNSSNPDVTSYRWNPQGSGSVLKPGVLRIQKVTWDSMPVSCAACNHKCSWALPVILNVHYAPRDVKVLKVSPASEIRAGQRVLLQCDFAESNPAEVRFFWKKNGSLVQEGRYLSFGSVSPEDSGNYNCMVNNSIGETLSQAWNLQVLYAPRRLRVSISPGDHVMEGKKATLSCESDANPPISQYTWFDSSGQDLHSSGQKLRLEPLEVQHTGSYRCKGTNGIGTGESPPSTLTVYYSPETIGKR
# Procedure, shortened: (§1)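 Biotinylated CD22 desialylated with SialoExo (4 h, 37° C) before capture on streptavidin chip. Running buffer 10 mM HEPES, 150 mM NaCl, 0.05% Tween-20, pH 7.5, 1% DMSO, with DMSO solvent correction; 120 s dissociation. Compound affinities from steady-state analysis.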
# cynomolgus Siglec-2/CD22 = cynomolgus Siglec-2/CD22 (Macaca fascicularis, UniProt A0A2K5WCZ6); assay: biochemical; assay type: binding; settings: SPR, steady-state analysis; read-out: Affinity cyno CD22
# cynomolgus Siglec-2/CD22, sequence (A0A2K5WCZ6 entry or part of it): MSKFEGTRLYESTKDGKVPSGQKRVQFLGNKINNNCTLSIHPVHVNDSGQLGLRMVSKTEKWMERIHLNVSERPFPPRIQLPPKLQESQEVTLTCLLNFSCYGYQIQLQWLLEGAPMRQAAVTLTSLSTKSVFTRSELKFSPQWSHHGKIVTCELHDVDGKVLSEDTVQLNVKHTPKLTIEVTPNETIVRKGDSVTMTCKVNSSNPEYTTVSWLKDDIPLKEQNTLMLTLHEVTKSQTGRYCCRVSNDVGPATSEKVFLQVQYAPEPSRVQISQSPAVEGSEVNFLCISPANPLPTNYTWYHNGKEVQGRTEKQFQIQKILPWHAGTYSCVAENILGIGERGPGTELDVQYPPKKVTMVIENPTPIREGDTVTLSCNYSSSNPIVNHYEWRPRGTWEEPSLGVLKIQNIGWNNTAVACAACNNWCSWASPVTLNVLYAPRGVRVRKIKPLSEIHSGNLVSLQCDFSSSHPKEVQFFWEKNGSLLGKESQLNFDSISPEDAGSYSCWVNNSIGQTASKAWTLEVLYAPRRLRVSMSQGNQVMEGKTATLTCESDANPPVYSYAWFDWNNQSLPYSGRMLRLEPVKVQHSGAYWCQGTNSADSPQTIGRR
# Procedure, shortened: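 Compound binding measured by steady-state SPR analysis, 120 s dissociation, in HEPES-NaCl-Tween buffer pH 7.5 containing 1% DMSO, DMSO solvent-corrected. Surface: cyno CD22, sialic acids first stripped by SialoExo for 4 h at 37° C., then amine-coupled onto CM5.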
# [2] = biological target: T2, human Siglec-2/CD22 protein (Homo sapiens, UniProt P20273); assay: SPR binding affinity to human CD22; settings: steady-state analysis
# T2 construct: purchased Acro Biosystems SI2-H82E3
# T2 sequence (P20273 20-847): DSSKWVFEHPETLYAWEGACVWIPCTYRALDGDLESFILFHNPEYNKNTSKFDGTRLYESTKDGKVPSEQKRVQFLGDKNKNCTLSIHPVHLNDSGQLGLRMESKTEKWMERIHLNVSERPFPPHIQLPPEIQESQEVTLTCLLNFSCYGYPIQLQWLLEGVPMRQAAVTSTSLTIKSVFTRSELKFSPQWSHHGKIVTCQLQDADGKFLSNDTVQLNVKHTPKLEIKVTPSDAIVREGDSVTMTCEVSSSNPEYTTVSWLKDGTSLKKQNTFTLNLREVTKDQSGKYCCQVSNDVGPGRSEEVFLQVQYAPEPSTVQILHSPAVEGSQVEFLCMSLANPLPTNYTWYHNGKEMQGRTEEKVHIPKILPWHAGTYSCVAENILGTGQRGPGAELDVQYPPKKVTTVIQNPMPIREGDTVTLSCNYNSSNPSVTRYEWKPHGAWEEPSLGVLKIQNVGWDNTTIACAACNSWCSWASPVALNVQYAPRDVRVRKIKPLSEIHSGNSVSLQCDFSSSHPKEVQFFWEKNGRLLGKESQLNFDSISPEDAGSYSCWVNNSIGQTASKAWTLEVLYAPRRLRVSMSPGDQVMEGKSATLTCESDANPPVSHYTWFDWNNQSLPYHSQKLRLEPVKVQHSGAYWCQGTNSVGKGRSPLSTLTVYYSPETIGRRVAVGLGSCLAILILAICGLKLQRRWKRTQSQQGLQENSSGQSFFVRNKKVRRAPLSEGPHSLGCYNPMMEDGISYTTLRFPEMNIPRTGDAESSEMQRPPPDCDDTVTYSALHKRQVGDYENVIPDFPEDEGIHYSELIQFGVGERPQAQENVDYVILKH
# Procedure, shortened: as §1
compound,measurement,setting,value
"C#CCN(CC(=O)O)C(=O)CCCCCO[C@]1(C(=O)O)C[C@H](O)[C@@H](NC(=O)CO)[C@H]([C@H](O)[C@H](O)CNC(=O)Cc2ccc(Cl)cc2)O1 [Compound 100, (2R,4S,5R,6R)-2-((6-((carboxymethyl)(prop-2-yn-1-yl)amino)-6-oxohexyl)oxy)-6-((1R,2R)-3-(2-(4-chlorophenyl)acetamido)-1,2-dihydroxypropyl)-4-hydroxy-5-(2-hydroxyacetamido)tetrahydro-2H-pyran-2-carboxylic acid]",Kd,[1],< 1000 nM
same,Kd,cynomolgus Siglec-2/CD22,< 1000 nM
same,Kd,[2],< 1000 nM
"C#CCN(CC(=O)O)C(=O)CCCO[C@]1(C(=O)O)C[C@H](O)[C@@H](NC(=O)CO)[C@H]([C@H](O)[C@H](O)CNC(=O)Cc2ccc(Cl)cc2)O1 [Compound 101, (2R,4S,5R,6R)-2-(4-((carboxymethyl)(prop-2-yn-1-yl)amino)-4-oxobutoxy)-6-((1R,2R)-3-(2-(4-chlorophenyl)acetamido)-1,2-dihydroxypropyl)-4-hydroxy-5-(2-hydroxyacetamido)tetrahydro-2H-pyran-2-carboxylic acid]",Kd,[1],1000 to 10000 nM
same,Kd,cynomolgus Siglec-2/CD22,1000 to 10000 nM
same,Kd,[2],1000 to 10000 nM
"C#CCC(NC(=O)CCCO[C@]1(C(=O)O)C[C@H](O)[C@@H](NC(=O)CO)[C@H]([C@H](O)[C@H](O)CNC(=O)Cc2ccc(Cl)cc2)O1)C(=O)O (stereo partly drawn) [Compound 102, (2R,4S,5R,6R)-2-(4-((1-carboxybut-3-yn-1-yl)amino)-4-oxobutoxy)-6-((1R,2R)-3-(2-(4-chlorophenyl)acetamido)-1,2-dihydroxypropyl)-4-hydroxy-5-(2-hydroxyacetamido)tetrahydro-2H-pyran-2-carboxylic acid]",Kd,[1],1000 to 10000 nM
same,Kd,cynomolgus Siglec-2/CD22,1000 to 10000 nM
same,Kd,[2],1000 to 10000 nM
"C#CCOCCCCCCC(O)[C@]1(C(=O)O)C[C@H](O)[C@@H](NC(=O)CO)[C@H]([C@H](O)[C@H](O)CNC(=O)Cc2ccc(Cl)cc2)O1 (stereo partly drawn) [Compound 103, (2S,4S,5R,6R)-6-((1R,2R)-3-(2-(4-chlorophenyl)acetamido)-1,2-dihydroxypropyl)-4-hydroxy-2-(1-hydroxy-7-(prop-2-yn-1-yloxy)heptyl)-5-(2-hydroxyacetamido)tetrahydro-2H-pyran-2-carboxylic acid]",Kd,[1],1000 to 10000 nM
same,Kd,cynomolgus Siglec-2/CD22,< 1000 nM
same,Kd,[2],< 1000 nM
"NCC(O)CO[C@]1(C(=O)O)C[C@H](O)[C@@H](NC(=O)CO)[C@H]([C@H](O)[C@H](O)CNC(=O)Cc2ccc(Cl)cc2)O1 (stereo partly drawn) [Compound 104, (2R,4S,5R,6R)-2-(3-amino-2-hydroxypropoxy)-6-((1R,2R)-3-(2-(4-chlorophenyl)acetamido)-1,2-dihydroxypropyl)-4-hydroxy-5-(2-hydroxyacetamido)tetrahydro-2H-pyran-2-carboxylic acid]",Kd,[1],> 10000 nM
same,Kd,cynomolgus Siglec-2/CD22,> 10000 nM
same,Kd,[2],> 10000 nM
"C#CCOP(=O)(O)OCCCCCCO[C@]1(C(=O)O)C[C@H](O)[C@@H](NC(=O)CO)[C@H]([C@H](O)[C@H](O)CNC(=O)Cc2ccc(Cl)cc2)O1 [Compound 105, (2R,4S,5R,6R)-6-((1R,2R)-3-(2-(4-chlorophenyl)acetamido)-1,2-dihydroxypropyl)-4-hydroxy-2-((6-((hydroxy(prop-2-yn-1-yloxy)phosphoryl)oxy)hexyl)oxy)-5-(2-hydroxyacetamido)tetrahydro-2H-pyran-2-carboxylic acid]",Kd,[1],< 1000 nM
same,Kd,cynomolgus Siglec-2/CD22,< 1000 nM
same,Kd,[2],< 1000 nM
"O=C(Cc1ccc(Cl)cc1)NC[C@@H](O)[C@@H](O)[C@@H]1O[C@@](OCC2CCOCC2)(C(=O)O)C[C@H](O)[C@H]1NC(=O)CO [Compound 106, (2R,4S,5R,6R)-6-((1R,2R)-3-(2-(4-chlorophenyl)acetamido)-1,2-dihydroxypropyl)-4-hydroxy-5-(2-hydroxyacetamido)-2-((tetrahydro-2H-pyran-4-yl)methoxy)tetrahydro-2H-pyran-2-carboxylic acid]",Kd,[1],1000 to 10000 nM
same,Kd,cynomolgus Siglec-2/CD22,< 1000 nM
same,Kd,[2],< 1000 nM
"O=C(Cc1ccc(Cl)cc1)NC[C@@H](O)[C@@H](O)[C@@H]1O[C@@](OCCCCCCNC(=O)c2ccccc2)(C(=O)O)C[C@H](O)[C@H]1NC(=O)CO [Compound 108, (2R,4S,5R,6R)-2-((6-benzamidohexyl)oxy)-6-((1R,2R)-3-(2-(4-chlorophenyl)acetamido)-1,2-dihydroxypropyl)-4-hydroxy-5-(2-hydroxyacetamido)tetrahydro-2H-pyran-2-carboxylic acid]",Kd,[1],< 1000 nM
same,Kd,cynomolgus Siglec-2/CD22,< 1000 nM
same,Kd,[2],< 1000 nM
"C#CCCCCCCCCO[C@]1(C(=O)O)C[C@H](O)[C@@H](NC(=O)CO)[C@H]([C@H](O)[C@H](O)CNC(=O)Cc2ccc(Cl)cc2)O1 [Compound 109, (2R,4S,5R,6R)-6-((1R,2R)-3-(2-(4-chlorophenyl)acetamido)-1,2-dihydroxypropyl)-2-(dec-9-yn-1-yloxy)-4-hydroxy-5-(2-hydroxyacetamido)tetrahydro-2H-pyran-2-carboxylic acid]",Kd,[1],< 1000 nM
same,Kd,cynomolgus Siglec-2/CD22,< 1000 nM
same,Kd,[2],< 1000 nM
"C#CCCCCCCO[C@]1(C(=O)O)C[C@H](O)[C@@H](NC(=O)CO)[C@H]([C@H](O)[C@H](O)CNC(=O)Cc2ccc(Cl)cc2)O1 [Compound 110, (2R,4S,5R,6R)-6-((1R,2R)-3-(2-(4-chlorophenyl)acetamido)-1,2-dihydroxypropyl)-4-hydroxy-5-(2-hydroxyacetamido)-2-(oct-7-yn-1-yloxy)tetrahydro-2H-pyran-2-carboxylic acid]",Kd,[1],< 1000 nM
same,Kd,cynomolgus Siglec-2/CD22,< 1000 nM
same,Kd,[2],< 1000 nM
"C#CCOCCOCCOCCOCCC(=O)NCCOCCOCCO[C@]1(C(=O)O)C[C@H](O)[C@@H](NC(=O)CO)[C@H]([C@H](O)[C@H](O)CNC(=O)Cc2ccc(Cl)cc2)O1 [Compound 111, (2R,4S,5R,6R)-6-((1R,2R)-3-(2-(4-chlorophenyl)acetamido)-1,2-dihydroxypropyl)-4-hydroxy-5-(2-hydroxyacetamido)-2-((10-oxo-3,6,13,16,19,22-hexaoxa-9-azapentacos-24-yn-1-yl)oxy)tetrahydro-2H-pyran-2-carboxylic acid]",Kd,[1],1000 to 10000 nM
same,Kd,cynomolgus Siglec-2/CD22,< 1000 nM
same,Kd,[2],1000 to 10000 nM
"C#CCNc1c(NCCCCCCO[C@]2(C(=O)O)C[C@H](O)[C@@H](NC(=O)CO)[C@H]([C@H](O)[C@H](O)CNC(=O)Cc3ccc(Cl)cc3)O2)c(=O)c1=O [Compound 112, (2R,4S,5R,6R)-6-((1R,2R)-3-(2-(4-chlorophenyl)acetamido)-1,2-dihydroxypropyl)-2-((6-((3,4-dioxo-2-(prop-2-yn-1-ylamino)cyclobut-1-en-1-yl)amino)hexyl)oxy)-4-hydroxy-5-(2-hydroxyacetamido)tetrahydro-2H-pyran-2-carboxylic acid]",Kd,[1],< 1000 nM
same,Kd,cynomolgus Siglec-2/CD22,< 1000 nM
same,Kd,[2],< 1000 nM
"C#CCOCCCCCCO[C@]1(C(=O)O)C[C@H](O)[C@@H](NC(=O)CO)[C@H]([C@H](O)[C@H](O)CNC(=O)Cc2ccc(Cl)cc2)O1 [Compound 113, (2R,4S,5R,6R)-6-((1R,2R)-3-(2-(4-chlorophenyl)acetamido)-1,2-dihydroxypropyl)-4-hydroxy-5-(2-hydroxyacetamido)-2-((6-(prop-2-yn-1-yloxy)hexyl)oxy)tetrahydro-2H-pyran-2-carboxylic acid]",Kd,[1],1000 to 10000 nM
same,Kd,cynomolgus Siglec-2/CD22,< 1000 nM
same,Kd,[2],< 1000 nM
